Measurements from ChEMBL document CHEMBL3621111, “In vitro COX-1 and COX-2 enzyme inhibitory activities of iridoids from Penstemon barbatus, Castilleja tenuiflora, Cresentia alata and Vitex mollis” (Bioorg Med Chem Lett, 2015).

What was measured:
[1] = molecular target: Prostaglandin G/H synthase 1 (Homo sapiens) (UniProt P23219); assay: Inhibition of COX1 (unknown origin) assessed as PGH2 production at 10 uM by measuring […] level by enzyme immunoassay
[2] = molecular target: Prostaglandin G/H synthase 1 (Homo sapiens) (UniProt P23219); assay: Inhibition of COX1 (unknown origin) assessed as PGH2 production at 35 uM by measuring […] level by enzyme immunoassay
[3] = molecular target: Prostaglandin G/H synthase 1 (Homo sapiens) (UniProt P23219); assay: Inhibition of COX1 (unknown origin) assessed as PGH2 production at 100 uM by measuring […] level by enzyme immunoassay

Chain of Prostaglandin G/H synthase 1 (Homo sapiens) (P23219 whole entry): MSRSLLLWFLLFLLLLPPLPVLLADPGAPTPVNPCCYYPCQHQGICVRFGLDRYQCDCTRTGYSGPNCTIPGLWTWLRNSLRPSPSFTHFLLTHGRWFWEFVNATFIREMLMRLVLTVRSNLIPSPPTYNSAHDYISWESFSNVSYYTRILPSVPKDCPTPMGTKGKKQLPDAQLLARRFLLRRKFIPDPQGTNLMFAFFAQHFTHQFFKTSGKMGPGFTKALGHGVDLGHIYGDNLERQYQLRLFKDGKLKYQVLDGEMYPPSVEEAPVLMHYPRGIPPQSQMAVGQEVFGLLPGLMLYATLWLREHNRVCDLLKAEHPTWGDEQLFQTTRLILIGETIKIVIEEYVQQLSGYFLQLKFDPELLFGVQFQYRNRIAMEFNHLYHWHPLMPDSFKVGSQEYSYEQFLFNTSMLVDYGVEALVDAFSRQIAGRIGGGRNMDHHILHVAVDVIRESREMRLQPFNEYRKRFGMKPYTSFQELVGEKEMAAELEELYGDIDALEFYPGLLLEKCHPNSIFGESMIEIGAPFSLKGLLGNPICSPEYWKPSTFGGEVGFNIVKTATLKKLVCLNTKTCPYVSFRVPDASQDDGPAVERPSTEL

Structure (SMILES)	inhibition [1]	inhibition [2]	inhibition [3]
C[C@@H]1CC[C@@H]2C(C=O)=CO[C@@H](O[C@@H]3O[C@H](CO)[C@@H](O)[C@H](O)[C@H]3O)[C@H]12	43%	48%	73.3%
O=C(O)C1=CO[C@@H](O[C@@H]2O[C@H](CO)[C@@H](O)[C@H](O)[C@H]2O)[C@@H]2C(CO)=CC[C@H]12	55.7%	54.1%	55.3%
OCC1=CC[C@@H]2C=CO[C@@H](O[C@@H]3O[C@H](CO)[C@@H](O)[C@H](O)[C@H]3O)[C@H]12	52.7%	49.9%	47.5%
COc1ccc(C(=O)O[C@@H]2C=C(CO)[C@H]3[C@H](O[C@@H]4O[C@H](CO)[C@@H](O)[C@H](O)[C@H]4O)OC=C[C@H]32)cc1	35%	34.3%	32.8%
COC(=O)C1=CO[C@@H](O[C@@H]2O[C@H](CO)[C@@H](O)[C@H](O)[C@H]2O)[C@H]2[C@@H]1CC[C@]2(C)O	< 30%	42.6%	42.7%
OCC1=C[C@@H](O)[C@@H]2C=CO[C@@H](O[C@@H]3O[C@H](CO)[C@@H](O)[C@H](O)[C@H]3O)[C@H]12	49.9%	48.2%	50.2%
COC(=O)C1=CO[C@@H](O[C@@H]2O[C@H](CO)[C@@H](O)[C@H](O)[C@H]2O)[C@@H]2[C@@H](C)[C@@H](O)C[C@H]12	51.2%	51.5%	50.5%
C[C@@H]1CC[C@]2(O)C(C=O)=CO[C@@H](O[C@@H]3O[C@H](CO)[C@@H](O)[C@H](O)[C@H]3O)[C@H]12	36.3%	36.6%	39.9%
COc1ccc(C(=O)O[C@H]2[C@@H]3C=CO[C@@H](O[C@@H]4O[C@H](CO)[C@@H](O)[C@H](O)[C@H]4O)[C@@H]3[C@@]3(CO)O[C@@H]23)cc1OC	38.2%	38.6%	39.1%
O=C(OCC1=C[C@@H](O)[C@@H]2C=CO[C@@H](O[C@@H]3O[C@H](CO)[C@@H](O)[C@H](O)[C@H]3O)[C@H]12)c1ccc(O)cc1	40.3%	40.8%	43.4%

Second part, the molecule after the results:

inhibition [1]	inhibition [2]	inhibition [3]	Structure (SMILES)
33.2%	33.4%	51.7%	COC(=O)C1=CO[C@@H](O[C@@H]2O[C@H](CO)[C@@H](O)[C@H](O)[C@H]2O)[C@@H]2[C@H](C)C[C@@H](O)[C@]12O
38.5%	38.6%	39.1%	CC(=O)O[C@]1(C)C[C@@H](O)[C@]2(O)C=CO[C@@H](O[C@@H]3O[C@H](CO)[C@@H](O)[C@H](O)[C@H]3O)[C@@H]21
36.9%	36%	35.4%	C[C@@H]1[C@H]2[C@H](O[C@@H]3O[C@H](CO)[C@@H](O)[C@H](O)[C@H]3O)OC=C(C(=O)O)[C@H]2C[C@@H]1O
51.7%	51.4%	48.2%	C=C1[C@H]2[C@H](O[C@@H]3O[C@H](CO)[C@@H](O)[C@H](O)[C@H]3O)OC=C(C(=O)O)[C@H]2C[C@@H]1O
44.2%	47.6%	63.7%	OC[C@H]1O[C@@H](O[C@@H]2OC=C[C@H]3[C@H](O)[C@@H]4O[C@]4(CO)[C@@H]23)[C@H](O)[C@@H](O)[C@@H]1O
33.4%	< 30%	< 30%	COC(=O)C1=CO[C@@H](O[C@@H]2O[C@H](CO)[C@@H](O)[C@H](O)[C@H]2O)[C@@H]2[C@H](C)[C@@H](O)C[C@H]12
